According to US20250129018A1, “PLEUROMUTILIN DERIVATIVES CONTAINING CYCLOALKYL GROUP AND PREPARATION METHODS AND APPLICATIONS THEREOF” (priority 2023, published 2025):
Where two headings read alike, the source gives them in different places.

Legend:
S. aureus-46 = experiment: MIC, clinical strain; assay type: cell-based, Staphylococcus aureus
Protocol: (§1) The pleuromutilin derivatives 1-4 prepared from Example 9 of the present disclosure were determined for their effect on Methicillin-resistant Staphylococcus aureus, Methicillin-resistant Staphylococcus epidermidis, standard strains of Staphylococcus aureus (S. aureus-29213 and S. aureus-25923), clinical strains 1-48 of S. aureus, Escherichia coli, S. agalactiae and S. dysgalactiae equisimilis (S. dysgalactiae-1, S. dysgalactiae-2, S. dysgalactiae-3) and minimum inhibitory concentration (MIC) using a two-fold serial dilution method, and the results were shown in Table 1, Table 2 and Table 3. The standard strains are commercially available from ATCC, and the clinical strains are preserved by Lanzhou Institute of Husbandry and Pharmaceutical Science of Chinese Academy of Agricultural Sciences (Lanzhou, Gansu, China).

S. aureus-16 = experiment: MIC, clinical strain; assay type: cell-based, Staphylococcus aureus
Protocol: as §1

S. aureus-34 = experiment: MIC, clinical strain; assay type: cell-based, Staphylococcus aureus
Protocol: as §1

S. aureus-3 = experiment: MIC, clinical strain; assay type: cell-based, Staphylococcus aureus
Protocol: as §1

S. aureus-2 = experiment: MIC, clinical strain; assay type: cell-based, Staphylococcus aureus
Protocol: as §1

S. aureus-45 = experiment: MIC, clinical strain; assay type: cell-based, Staphylococcus aureus
Protocol: as §1

S. aureus-9 = experiment: MIC, clinical strain; assay type: cell-based, Staphylococcus aureus
Protocol: as §1

S. aureus-33 = experiment: MIC, clinical strain; assay type: cell-based, Staphylococcus aureus
Protocol: as §1

S. aureus-15 = experiment: MIC, clinical strain; assay type: cell-based, Staphylococcus aureus
Protocol: as §1

S. aureus-40 = experiment: MIC, clinical strain; assay type: cell-based, Staphylococcus aureus
Protocol: as §1

S. aureus-27 = experiment: MIC, clinical strain; assay type: cell-based, Staphylococcus aureus
Protocol: as §1

S. aureus-10 = experiment: MIC, clinical strain; assay type: cell-based, Staphylococcus aureus
Protocol: as §1

S. aureus-37 = experiment: MIC, clinical strain; assay type: cell-based, Staphylococcus aureus
Protocol: as §1

S. aureus-11 = experiment: MIC, clinical strain; assay type: cell-based, Staphylococcus aureus
Protocol: as §1

S. aureus-6 = experiment: MIC, clinical strain; assay type: cell-based, Staphylococcus aureus
Protocol: as §1

S. aureus-17 = experiment: MIC, clinical strain; assay type: cell-based, Staphylococcus aureus
Protocol: as §1

MRSA-337371 = experiment: In vivo antimicrobial activity experiment in mice (systemic MRSA infection, survival); conditions: for protection rate against systemic MRSA infection in mice: 20 mg/kg; for mortality rate / final survival rate: immunosuppressed mice infected i.p. with MRSA-337371; for final survival rate: end of observation
Protocol: First, an MRSA-337371 cryopreservation solution was taken out from a freezer set at −80° C. and the following steps were performed: • (1) 10 μL of the thawed MRSA-337371 cryopreservation solution was pipetted and added into 6 mL of Tryptic Soy Broth (TSB), and incubated until the bacterial solution had become turbid; • (2) a sterile inoculation loop was dipped into and picked up a small amount of the bacterial solution and was dragged on an MH agar medium for streaking, and then the MH agar medium was inverted and placed in a constant temperature incubator at 37° C. to incubate for 24 hours; • (3) a single colony on the MH agar medium was picked and inoculated in 30 mL of MH liquid medium with an inoculation loop, and placed in a constant temperature shaking incubator at 37° C. for 18 hours for later use. […]
6-week-old, about 20 g-weighted, SPF-grade healthy mice (one half male and the other female) were randomly divided into 5 groups, with 10 mice in each group (one half male and the other female), which were specifically divided into a positive control group (an MRSA infection group), a negative control group (a sterile normal saline control group, which was injected with only 10 mL/kg of drug solvent), drug control groups (a Tiamulin treatment group and a Valnemulin treatment group) and an experimental group (a derivative 2 treatment group). 100 mg/kg of cyclophosphamide was intraperitoneally injected to the mice 4 days before the experiment, and 150 mg/kg of cyclophosphamide injection was injected to the mice 1 day before the experiment to keep the mice in an immunosuppressed state. After fasting for 12 hours, except for the negative control group, the remaining 4 groups were intraperitoneally injected with 0.5 mL of 10^8 CFU/mL bacterial solution, and after 30 min, the drug control groups and the experimental group were intravenously injected with 20 mg/kg of the respective drug. The mice were continued to be reared, and observed to record the deaths daily.
Calculation of survival rate: During the experiment, the morbidity and the mortality in each group of mice was observed and recorded in detail every day, and the survival rate in each group of mice was calculated as:
Survival rate=Number of surviving animals/Number of experimental animals×100%

[1] = day 1, 20 mg/kg intravenously 30 min after infection

| Structure (SMILES) | in vitro minimum inhibitory concentration (S. aureus-46) | in vitro minimum inhibitory concentration (S. aureus-16) | in vitro minimum inhibitory concentration (S. aureus-34) | in vitro minimum inhibitory concentration (S. aureus-3) | in vitro minimum inhibitory concentration (S. aureus-2) | in vitro minimum inhibitory concentration (S. aureus-45) | in vitro minimum inhibitory concentration (S. aureus-9) | in vitro minimum inhibitory concentration (S. aureus-33) | in vitro minimum inhibitory concentration (S. aureus-15; in µg/mL) | in vitro minimum inhibitory concentration (S. aureus-40) | in vitro minimum inhibitory concentration (S. aureus-27) | in vitro minimum inhibitory concentration (S. aureus-10) | in vitro minimum inhibitory concentration (S. aureus-37) | in vitro minimum inhibitory concentration (S. aureus-11) | in vitro minimum inhibitory concentration (S. aureus-6) | in vitro minimum inhibitory concentration (S. aureus-17) | protection rate against systemic MRSA infection in mice (MRSA-337371) [%] | mortality rate (MRSA-337371; [1]) [%] | mortality rate (MRSA-337371; day 2, 20 mg/kg intravenously) [%] | final survival rate (MRSA-337371; 20 mg/kg intravenously) [%] | also measured |
| --- | --- | --- | --- | --- | --- | --- | --- | --- | --- | --- | --- | --- | --- | --- | --- | --- | --- | --- | --- | --- | --- |
| C=C[C@]1(C)C[C@@H](OC(=O)CSC(C)(C)CNC(=O)[C@H](N)C(C)C)[C@]2(C)[C@H](C)CC[C@]3(CCC(=O)[C@H]32)[C@@H](C)[C@@H]1O [Valnemulin] | 0.063 | 0.063 | 0.063 | 0.063 | 0.25 | 0.25 | 0.063 | 0.063 | 0.063 | 0.063 | 0.063 | 0.063 | 0.063 | 0.063 | 0.063 | 0.063 | 20 | 30 | 80 | 20 | – |
| C=C[C@]1(C)C[C@@H](OC(=O)CSCCN(CC)CC)[C@]2(C)[C@H](C)CC[C@]3(CCC(=O)[C@H]32)[C@@H](C)[C@@H]1O [Tiamulin] | 1 | 0.5 | 0.5 | 0.5 | 0.5 | 1 | 0.5 | 1 | – | 1 | 0.5 | 0.5 | 0.5 | 0.5 | 0.25 | 0.5 | 10 | 50 | 80 | 10 | in vitro minimum inhibitory concentration (S. aureus-15): 0.5 µg/mL; mortality rate (MRSA-337371; day 3, 20 mg/kg intravenously): 90% |
| C=CC1(C)CC(OC(=O)CSC(C)(C)CNC(=O)C2CCC2)C2(C)C(C)CCC3(CCC(=O)C32)C(C)C1O (centres unmarked) [derivative 2] | 0.063 | 0.031 | 0.063 | 0.031 | 0.063 | 0.125 | 0.063 | 0.031 | 0.031 | 0.016 | 0.031 | 0.063 | 0.063 | 0.063 | 0.031 | 0.063 | 60 | 10 | 40 | 60 | treatment effect in mice (MRSA-337371; compared with marketed drugs): superior to the marketed Tiamulin and Valnemulin |
